Test results: patent US9023847B2, “Azaheterocyclic compounds” (Merck Patent GmbH, priority 2009, dated 2015)

Each molecule was assayed against T1, P70S6K (T412E mutant, Millipore) (Homo sapiens, UniProt P23443, T412E) (assay: p70S6K enzyme assay). Conditions: class symbol; 3 nM P70S6K, 24 μM ATP; read-out: IC50 (p70S6K).
T1 construct: purchased Millipore
T1 sequence (P23443 whole entry T412E): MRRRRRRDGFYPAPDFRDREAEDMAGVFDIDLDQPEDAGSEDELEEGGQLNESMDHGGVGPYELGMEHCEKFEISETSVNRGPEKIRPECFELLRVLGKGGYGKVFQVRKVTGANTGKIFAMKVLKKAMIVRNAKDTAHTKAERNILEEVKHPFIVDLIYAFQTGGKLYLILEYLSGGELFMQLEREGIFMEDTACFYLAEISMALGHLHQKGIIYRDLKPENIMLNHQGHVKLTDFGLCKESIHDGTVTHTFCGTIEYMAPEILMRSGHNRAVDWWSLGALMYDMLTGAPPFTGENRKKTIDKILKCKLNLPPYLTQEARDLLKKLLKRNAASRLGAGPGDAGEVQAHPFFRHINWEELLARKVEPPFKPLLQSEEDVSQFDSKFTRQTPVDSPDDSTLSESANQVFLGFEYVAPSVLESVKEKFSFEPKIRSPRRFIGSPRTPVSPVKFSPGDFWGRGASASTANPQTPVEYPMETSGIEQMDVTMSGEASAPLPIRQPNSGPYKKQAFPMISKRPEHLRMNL
Assay type: biochemical
Protocol: P70S6K inhibitor compounds are diluted and plated in 96 well plates. A reaction mixture including the following components is then added to the compound plate to initiate the enzyme reaction; P70S6K (3 nM, T412E mutant, Millipore) is mixed with 24 μM ATP in an assay buffer containing 100 mM Hepes (pH 7.5), 5 mM MgCl2, 1 mM DTT, 0.015% Brij and 1 μM of the substrate peptide FITC-AHA-AKRRRLSSLRA-OH (derived from the S6 ribosomal protein sequence, FITC=fluorescein isothiocyanate, AHA=6-aminohexanoic acid). The reaction is incubated for 90 min at 25° C., before the addition of 10 mM EDTA to stop the reaction. The proportion of substrate and product (phosphorylated) peptide is analysed on a Caliper Life Sciences Lab Chip 3000, using a pressure of −1.4 psi, and upstream and downstream voltages of −3000 and −700 respectively. Product peaks are resolved before substrate peaks on the resulting chromatograms.
For `Cc1ccc([C@@H](CN)NC(=O)c2sccc2Nc2ccnc3[nH]ccc23)cc1` (stereo in doubt) [Example 122, 3-(1H-Pyrrolo[2,3-b]pyridin-4-ylamino)-thiophene-2-carboxylic acid (2-amino-1-p-tolyl-ethyl)-amide], the IC50 was < 100 nM. With `COc1cccc([C@@H](CN)NC(=O)c2sccc2Nc2ccnc3[nH]ccc23)c1` (stereo in doubt) [Example 123, 3-(1H-Pyrrolo[2,3-b]pyridin-4-ylamino)-thiophene-2-carboxylic acid [2-amino-1-(3-methoxy-phenyl)-ethyl]-amide] the IC50 was < 100 nM. With `NC[C@@H](NC(=O)c1sccc1Nc1ccnc2[nH]ccc12)c1cccc(Cl)c1` (stereo in doubt) [Example 124, 3-(1H-Pyrrolo[2,3-b]pyridin-4-ylamino)-thiophene-2-carboxylic acid [2-amino-1-(3-chloro-phenyl)-ethyl]-amide] the IC50 was < 100 nM. For `NC[C@@H](NC(=O)c1sccc1Nc1ccnc2[nH]ccc12)c1ccc(Cl)c(Cl)c1` (stereo in doubt) [Example 125, 3-(1H-Pyrrolo[2,3-b]pyridin-4-ylamino)-thiophene-2-carboxylic acid [2-amino-1-(3,4-dichloro-phenyl)-ethyl]-amide], the IC50 was < 100 nM. Molecule `O=C(NCC1CCCO1)c1sccc1Nc1ccnc2[nH]ccc12` (stereo not drawn) [Example 3, 3-(1H-Pyrrolo[2,3-b]pyridin-4-ylamino)-thiophene-2-carboxylic acid (tetrahydro-furan-2-ylmethyl)-amide] has an IC50 of 100 to 1000 nM. In the case of `O=C(c1sccc1Nc1ccnc2[nH]ccc12)N1CCCC1` [Example 4, Pyrrolidin-1-yl-[3-(1H-pyrrolo[2,3-b]pyridin-4-ylamino)-thiophen-2-yl]-methanone], the IC50 is reported as 100 to 1000 nM. `CC(C)(C)OC(=O)N1CCC(NC(=O)c2sccc2Nc2ccnc3[nH]ccc23)C1` (stereo not drawn) [Example 5, 3-{[3-(1H-Pyrrolo[2,3-b]pyridin-4-ylamino)-thiophene-2-carbonyl]-amino}-pyrrolidine-1-carboxylic acid tert-butyl ester] was tested, and the IC50 was 100 to 1000 nM. `O=C(NC1CCNC1)c1sccc1Nc1ccnc2[nH]ccc12` (stereo not drawn) [Example 6, 3-(1H-Pyrrolo[2,3-b]pyridin-4-ylamino)-thiophene-2-carboxylic acid pyrrolidin-3-ylamide] was tested, and the IC50 was < 100 nM. `O=C(NCc1ccccn1)c1sccc1Nc1ccnc2[nH]ccc12` [Example 7, 3-(1H-Pyrrolo[2,3-b]pyridin-4-ylamino)-thiophene-2-carboxylic acid (pyridin-2-ylmethyl)-amide] showed an IC50 of 100 to 1000 nM. `O=C(NCc1cccnc1)c1sccc1Nc1ccnc2[nH]ccc12` [Example 8, 3-(1H-Pyrrolo[2,3-b]pyridin-4-ylamino)-thiophene-2-carboxylic acid (pyridin-3-ylmethyl)-amide] was tested, and the IC50 was 100 to 1000 nM. Molecule `O=C(NC1CCCNC1)c1sccc1Nc1ccnc2[nH]ccc12` (stereo not drawn) [Example 9, 3-(1H-Pyrrolo[2,3-b]pyridin-4-ylamino)-thiophene-2-carboxylic acid piperidin-3-ylamide] has an IC50 of 100 to 1000 nM. `CC(CO)NC(=O)c1sccc1Nc1ccnc2[nH]ccc12` (stereo not drawn) [Example 10, 3-(1H-Pyrrolo[2,3-b]pyridin-4-ylamino)-thiophene-2-carboxylic acid (2-hydroxy-1-methyl-ethyl)-amide] gave an IC50 of 100 to 1000 nM. `CC(O)CNC(=O)c1sccc1Nc1ccnc2[nH]ccc12` (stereo not drawn) [Example 11, 3-(1H-Pyrrolo[2,3-b]pyridin-4-ylamino)-thiophene-2-carboxylic acid (2-hydroxy-propyl)-amide] showed an IC50 of 100 to 1000 nM. Molecule `O=C(NCCOc1ccccc1)c1sccc1Nc1ccnc2[nH]ccc12` [Example 12, 3-(1H-Pyrrolo[2,3-b]pyridin-4-ylamino)-thiophene-2-carboxylic acid (2-phenoxy-ethyl)-amide] has an IC50 of 100 to 1000 nM. In the case of `O=C(NCCC1=CCCCC1)c1sccc1Nc1ccnc2[nH]ccc12` [Example 13, 3-(1H-Pyrrolo[2,3-b]pyridin-4-ylamino)-thiophene-2-carboxylic acid (2-cyclohex-1-enyl-ethyl)-amide], the IC50 is reported as < 100 nM.
